Laboratory results as given in patent US10829499B2, “Tetracyclic heterocycle compounds useful as HIV integrase inhibitors” (MERCK SHARP & DOHME CORP., priority 2016, dated 2020).
Where two headings read alike, the source gives them in different places.

Tested on: HIV-1 (NL4-3 strain)
Assay: Assay for Inhibition of HIV Replication (kinetic assay, MT4-gag-GFP reporter cell line; VIKING)
Format: cell-based
Method: This assay is a kinetic assay that employs a reporter cell line (MT4-gag-GFP) to quantify the number of new cells infected in each round of replication.
MT4-GFP cells (250,000 cells/ml) were bulk-infected with HIV-1 (NL4-3 strain) at low multiplicity of infection (MOI) in RPMI cell culture medium+10% FBS for 24 hours. Cells were then washed once in RPMI cell culture medium+10% FBS and resuspended in RPMI cell culture medium+0% or 10% or 100% normal human serum (NHS). Test compounds were serial-diluted in DMSO on an ECHO® liquid handler. The infected MT4-GFP cells were added to a 384-well poly-D-lysine coated black plate with clear bottom in which the diluted test compounds were placed. The cells were seeded at 8,000 cells per well and the final DMSO concentration was 0.4%. The infected cells (Green GFP cells) were quantified at both 24 and 48 hours post incubation using Acumen eX3. Viral reproductive ratio (R0) was determined using the number of infected cells at 48 hours divided by the number of infected cells at 24 hours. Percent viral growth inhibition was calculated by [1-(R-Rtripledrug),/(RDMSO-Rtripledrug)]*100. Compound potency IP or IC50 was determined by a 4-parameter dose response curve analysis. In vitro potency in the cell-based assay in the absence of normal human serum (NHS) and the presence of 100% NHS.

[1] = MT4-GFP cells infected with HIV-1 NL4-3, 0% normal human serum (NHS), read-out: VIKING IP50 (nM) with 0% NHS
[2] = MT4-GFP cells infected with HIV-1 NL4-3, 100% normal human serum (NHS), read-out: VIKING IP50 (nM) with 100% NHS
[3] = Human immunodeficiency virus 1, NL43, MT4-GFP cells infected with HIV-1 NL4-3, 0% normal human serum (NHS), read-out: VIKING IP50 (nM) with 0% NHS
[4] = Human immunodeficiency virus 1, NL43, MT4-GFP cells infected with HIV-1 NL4-3, 100% normal human serum (NHS), read-out: VIKING IP50 (nM) with 100% NHS

Row | Structure (SMILES) | IC50 [1] | IC50 [2] | IC50 [3] | IC50 [4]
1 | CC(=O)N1C[C@H](C)N2C(=O)c3c(O)c(=O)c(C(=O)NCc4cccc(Cl)c4F)c4n3C(CC4)C12 (stereo partly shown) [Compound 120] | 1.19 nM | 24.5 nM |  | 
2 | C[C@H]1CNC2C3CCc4c(C(=O)NCc5ccc(F)cc5F)c(=O)c(O)c(n43)C(=O)N21 (stereo partly shown) [Compound 99] |  | 19.2 nM | 2.28 nM | 
3 | C[C@H]1CN(C)C2C3CCc4c(C(=O)NCc5cccc(Cl)c5F)c(=O)c(O)c(n43)C(=O)N21 (stereo partly shown) [Compound 109] |  | 480 nM | 1.17 nM | 
4 | CCNC1CC2C3OCCCN3C(=O)c3c(O)c(=O)c(C(=O)NCc4c(F)cc(F)cc4F)c1n32 (stereo not shown) [Compound 180] | 3.57 nM | 20.1 nM |  | 
5 | COc1cc(F)cc(F)c1CNC(=O)c1c2n3c(c(O)c1=O)C(=O)N1CCCOC1C3CC2 (racemic) [Compound 59] |  |  | 3.08 nM | 8400 nM
6 | CC(=O)N1C[C@H](C)N2C(=O)c3c(O)c(=O)c(C(=O)NCc4cccc(Cl)c4F)c4n3C(CC4)C12 (stereo partly shown) [Compound 121] |  |  | 1.45 nM | 308 nM
7 | O=C(NCc1c(F)cc(F)cc1F)c1c2n3c(c(O)c1=O)C(=O)N1CCOC1C3CC2 (single isomer, unassigned) [Compound 21] | 0.605 nM | 158 nM |  | 
8 | COC1CC2C3OCCN3C(=O)c3c(O)c(=O)c(C(=O)NCc4ccc(F)cc4F)c1n32 (single isomer, unassigned) [Compound 73] | 0.679 nM | 49.4 nM |  | 
9 | C[C@H]1CN2C(=O)c3c(O)c(=O)c(C(=O)NCc4ccc(F)cc4F)c4n3C(CC4)C2N1 (stereo partly shown) [Compound 97] | 4.3 nM | 48.3 nM |  | 
10 | O=C(NCc1ccc(F)c(Cl)c1)c1c2n3c(c(O)c1=O)C(=O)N1CCOC1C3CC2 (single isomer, unassigned) [Compound 22] |  | 503 nM | 0.895 nM | 
11 | O=C(NCc1ccc(F)cc1F)c1c2n3c(c(O)c1=O)C(=O)N1CCOC1C3CC2 (single isomer, unassigned) [Compound 6] | 0.825 nM | 7910 nM |  | 
12 | O=C(NCc1ccc(F)cc1)c1c2n3c(c(O)c1=O)C(=O)N1CCCOC1C3CC2 (single isomer, unassigned) [Compound 52] | 1.29 nM | 3380 nM |  | 
13 | CC12OCCCN1C(=O)c1c(O)c(=O)c(C(=O)NCc3ccc(F)cc3F)c3n1C2CC3 (stereo not shown) [Compound 134] | 1.29 nM | 20.5 nM |  | 
14 | CN1CCCN2C(=O)c3c(O)c(=O)c(C(=O)NCc4ccc(F)cc4F)c4n3C(CC4)C12C (stereo not shown) [Compound 142] | 0.504 nM | 9.41 nM |  | 
15 | CCCN1C2C3CCc4c(C(=O)NCc5cccc(Cl)c5F)c(=O)c(O)c(n43)C(=O)N2C[C@@H]1C (stereo partly shown) [Compound 107] | 2.82 nM | 272 nM |  | 
16 | O=C(NCc1ccccc1F)c1c2n3c(c(O)c1=O)C(=O)N1CCOC1C3CC2 (single isomer, unassigned) [Compound 11] | 1.09 nM | 589 nM |  | 
17 | CC12OCCCN1C(=O)c1c(O)c(=O)c(C(=O)NCc3ccc(F)cc3F)c3n1C2CC3 (stereo not shown) [Compound 133] |  | 617 nM | 0.93 nM | 
18 | CC12OCCCN1C(=O)c1c(O)c(=O)c(C(=O)NCc3ccc(F)cc3F)c3n1C2CC3 (stereo not shown) [Compound 135] | 0.791 nM | 1280 nM |  | 
19 | C[C@@H]1COC2C3CCc4c(C(=O)NCc5ccc(F)cc5F)c(=O)c(O)c(n43)C(=O)N21 (single isomer, unassigned) [Compound 34] | 0.635 nM | 1560 nM |  | 
20 | O=C(NCc1c(F)cc(F)cc1F)c1c2n3c(c(O)c1=O)C(=O)N1CCOC1C3CC2 (single isomer, unassigned) [Compound 19] | 0.539 nM | 1230 nM |  | 
21 | CC(=O)N1C2C3CCc4c(C(=O)NCc5cccc(Cl)c5F)c(=O)c(O)c(n43)C(=O)N2C[C@@H]1C (stereo partly shown) [Compound 122] |  |  | 2.17 nM | 30.1 nM
22 | C[C@H]1CN2C(=O)c3c(O)c(=O)c(C(=O)NCc4cccc(Cl)c4F)c4n3C(CC4)C2N1 (stereo partly shown) [Compound 92] | 0.67 nM | 8.12 nM |  | 
23 | O=C(NCc1cccc(F)c1F)c1c2n3c(c(O)c1=O)C(=O)N1C4CCC(C4)OC1C3CC2 (stereo not shown) [Compound 166] | 5.39 nM | 50.6 nM |  | 
24 | CN1CCCN2C(=O)c3c(O)c(=O)c(C(=O)NCc4ccc(F)cc4F)c4n3C(CC4)C12 (single isomer, unassigned) [Compound 81] |  | 24.2 nM | 1.15 nM | 
25 | C[C@H]1CN2C(=O)c3c(O)c(=O)c(C(=O)NCc4ccc(F)cc4F)c4n3C(CC4)C2N1 (stereo partly shown) [Compound 96] | 2.04 nM | 13.8 nM |  | 

Row | Structure (SMILES) | IC50 [1] | IC50 [2] | IC50 [3] | IC50 [4]
26 | C[C@H]1CN2C(=O)c3c(O)c(=O)c(C(=O)NCc4cccc(Cl)c4F)c4n3C(CC4)C2N1 (stereo partly shown) [Compound 91] | 1 nM | 464 nM |  | 
27 | CCNC1CC2C3OCCCN3C(=O)c3c(O)c(=O)c(C(=O)NCc4c(F)cc(F)cc4F)c1n32 (stereo not shown) [Compound 184] | 5 nM | 167 nM |  | 
28 | C[C@H]1CN2C(=O)c3c(O)c(=O)c(C(=O)NCc4cccc(Cl)c4F)c4n3C(CC4)C2N1C (stereo partly shown) [Compound 103] | 1.45 nM | 15.4 nM |  | 
29 | CCNC1CC2C3OCCCN3C(=O)c3c(O)c(=O)c(C(=O)NCc4ccc(F)cc4F)c1n32 (stereo not shown) [Compound 204] | 15.7 nM | 4830 nM |  | 
30 | O=C(NCc1cccc(Cl)c1F)c1c2n3c(c(O)c1=O)C(=O)N1CCCCOC1C3CC2 (single isomer, unassigned) [Compound 65] | 0.939 nM | 6680 nM |  | 
31 | CCNC1CC2C3OCCCN3C(=O)c3c(O)c(=O)c(C(=O)NCc4cccc(F)c4F)c1n32 (stereo not shown) [Compound 185] |  |  | 11.7 nM | 1160 nM
32 | O=C(NCc1ccc(F)c(Cl)c1F)c1c2n3c(c(O)c1=O)C(=O)N1C4CCC(C4)OC1C3CC2 (stereo not shown) [Compound 157] | 12.9 nM | 733 nM |  | 
33 | CN1CCN2C(=O)c3c(O)c(=O)c(C(=O)NCc4ccc(F)cc4F)c4n3C(CC4)C12C (stereo not shown) [Compound 140] | 0.557 nM | 11.3 nM |  | 
34 | CCNC1CC2C3OCCCN3C(=O)c3c(O)c(=O)c(C(=O)NCc4c(F)cc(F)cc4F)c1n32 (stereo not shown) [Compound 178] | 16 nM | 6090 nM |  | 
35 | O=C(NCc1cccc(Cl)c1F)c1c2n3c(c(O)c1=O)C(=O)N1CCCCOC1C3CC2 (single isomer, unassigned) [Compound 66] | 1.48 nM | 834 nM |  | 
36 | COC1CC2C3N(C)CCN3C(=O)c3c(O)c(=O)c(C(=O)NCc4ccc(F)cc4F)c1n32 (stereo not shown) [Compound 125] | 10.3 nM | 57.7 nM |  | 
37 | O=C(NCc1cccc(Cl)c1F)c1c2n3c(c(O)c1=O)C(=O)N1CCOC1C3CC2 (single isomer, unassigned) [Compound 4] | 0.439 nM | 93.6 nM |  | 
38 | O=C(NCc1c(F)cc(F)cc1F)c1c2n3c(c(O)c1=O)C(=O)N1C4CCC(C4)OC1C3CC2 (stereo not shown) [Compound 169] | 2.71 nM | 42.9 nM |  | 
39 | O=C(NCc1ccc(F)c(Cl)c1)c1c2n3c(c(O)c1=O)C(=O)N1CCOC1C3CC2 (single isomer, unassigned) [Compound 24] | 0.622 nM |  |  | 8000 nM
40 | C[C@H]1CN2C(=O)c3c(O)c(=O)c(C(=O)NCc4cccc(Cl)c4F)c4n3C(CC4)C2N1C (stereo partly shown) [Compound 104] | 0.397 nM | 71.4 nM |  | 
41 | C[C@@H]1COC2C3CCc4c(C(=O)NCc5ccc(F)cc5F)c(=O)c(O)c(n43)C(=O)N21 (single isomer, unassigned) [Compound 33] |  |  | 0.543 nM | 1940 nM
42 | CN1CCCN2C(=O)c3c(O)c(=O)c(C(=O)NCc4cccc(Cl)c4F)c4n3C(CC4)C12 (single isomer, unassigned) [Compound 84] | 0.762 nM | 37.5 nM |  | 
43 | CCNC1C[C@H]2[C@H]3OC4CCC(C4)N3C(=O)c3c(O)c(=O)c(C(=O)NCc4ccc(F)cc4F)c1n32 (stereo partly shown) [Compound 176] |  |  | 16.8 nM | 129 nM
44 | C[C@H]1CN2C(=O)c3c(O)c(=O)c(C(=O)NCc4cccc(Cl)c4F)c4n3C(CC4)C2N1C (stereo partly shown) [Compound 102] |  |  | 1.05 nM | 579 nM
45 | CCNC1CC2C3OCCCN3C(=O)c3c(O)c(=O)c(C(=O)NCc4cccc(Cl)c4F)c1n32 (stereo not shown) [Compound 194] | 15.7 nM | 35.1 nM |  | 
46 | CCNC1C[C@@H]2[C@H]3OC4CCC(C4)N3C(=O)c3c(O)c(=O)c(C(=O)NCc4ccc(F)cc4F)c1n32 (stereo partly shown) [Compound 175] | 20.8 nM | 78.8 nM |  | 
47 | CCNC1CC2C3OCCCN3C(=O)c3c(O)c(=O)c(C(=O)NCc4cccc(F)c4F)c1n32 (stereo not shown) [Compound 187] | 3.51 nM | 49.1 nM |  | 
48 | C[C@H]1CNC2C3CCc4c(C(=O)NCc5cccc(Cl)c5F)c(=O)c(O)c(n43)C(=O)N21 (stereo partly shown) [Compound 90] | 0.397 nM | 24.6 nM |  | 
49 | O=C(NCc1c(F)cccc1F)c1c2n3c(c(O)c1=O)C(=O)N1CCOC1C3CC2 (single isomer, unassigned) [Compound 14] | 0.827 nM | 194 nM |  | 
50 | O=C(NCc1ccc(F)cc1F)c1c2n3c(c(O)c1=O)C(=O)N1CCCOC1C3CC2 (single isomer, unassigned) [Compound 55] |  | 39.5 nM | 1.03 nM | 
